Assay results: ChEMBL document CHEMBL1149218, “Predicting pharmacophore signals for post-coital antifertility activity of 1-trifluoromethyl-1,2,2-triphenylethylene derivatives: a statistical approximation using E-state index” (2004)

Tested on: Rattus norvegicus
Assay: Effective oral dose of compound for Post-coital antifertility activity was determined in rats
Format: functional
Design: unit not given here

Row | Compound | pED50
1 | Fc1ccccc1C(=C(c1ccccc1)c1ccccc1)C(F)(F)F | 1.204
2 | FC(F)(F)C(=C(c1ccccc1)c1ccccc1)c1ccc(C(F)(C(F)(F)F)C(F)(F)F)cc1 | 1.204
3 | FC(F)(F)C(=C(c1ccccc1)c1ccccc1)c1cccc(C(F)(F)F)c1 | 1.477
4 | Fc1cccc(C(=C(c2ccccc2)c2ccccc2)C(F)(F)F)c1 | 1.204
5 | FC(F)(F)C(=C(c1ccccc1)c1ccccc1)c1ccc(C(F)(F)F)cc1 | 1.477
6 | Fc1ccc(C(=C(c2ccccc2)c2ccccc2)C(F)(F)F)cc1 | 1.602
7 | Cc1ccc(C(=C(c2ccccc2)c2ccccc2)C(F)(F)F)cc1 | 2.681
8 | FC(F)(F)C(F)(F)C(=C(c1ccccc1)c1ccccc1)c1ccccc1 | 2.301
9 | FC(F)(F)C(=C(c1ccccc1)c1ccccc1)c1ccccc1 | 2.079
10 | COc1ccc(/C(=C(\c2ccccc2)C(F)(F)F)c2ccccc2)cc1 | 1.602
11 | COc1ccc(/C(=C(/c2ccccc2)C(F)(F)F)c2ccccc2)cc1 | 1.114
12 | COc1ccc(C(=C(c2ccccc2)c2ccccc2)C(F)(F)F)cc1 | 2.079
13 | COc1ccc(C(=C(c2ccccc2)C(F)(F)F)c2ccc(OC)cc2)cc1 | 2.079
14 | FC(F)(F)C(=C(c1ccccc1)c1ccccc1)c1cccs1 | 2.914
15 | Fc1ccc(/C(=C(/c2ccccc2)C(F)(F)F)c2ccccc2)cc1 | 2.491
16 | FC(F)(F)C(c1ccccc1)C(c1ccccc1)c1ccccc1 (stereo not drawn) | 2.991
17 | COc1ccc(/C(=C(/c2ccc(F)cc2)C(F)(F)F)c2ccccc2)cc1 | 1.301
18 | FC(F)(F)C(=C(c1ccccc1)c1ccccc1)c1ccc(Cl)cc1 | 1.477
